This note sets out measurements from patent US11076595B2, “1-(n,n-disubstituted carbamoyl) 4-(substituted sulfonyl)triazolin-5-one derivative, 4-(n,n-disubstituted carbamoyl) 1-(substituted sulfonyl)triazolin-5-one derivative, and herbicide containing said derivative as active ingredient” (HOKKO CHEMICAL INDUSTRY CO., LTD., priority 2017, dated 2021).

What all share (format): in vivo
Test [1] has as its system Lindernia pyxidaria. Briefly: Test Example 12: herbicidal effect test by treatment during growing period in paddy field. The following applies: 120 g/10a; treatment seven days after sowing in flooded paddy pot; assessed 14 days after treatment. The protocol: (§1) This test was performed with two replications per one formulation concentration plot, and 14 days after the formulation treatments, the weed suppression rate (%) was determined according to the following equation (Math. 2). Weed suppression rate (%)=(1−average dry weight (g) of plants in treated plots/average dry weight (g) of plants in untreated plots)×100 [Math. 2]
(§2) A Wagner pot having an area of 1/10000 are was filled with paddy field soil and after adding water, a chemical fertilizer (N:P:K=17:17:17) was mixed, followed by puddling. Thereafter, 30 grains of each of Echinochloa crus-galli, broad-leaved weed (Lindernia pyxidaria, Monochoria vaginalis) and Scirpus juncoides seeds were sown to a depth of 0 to 1 cm. Immediately after the sowing, the pot was flooded, and the depth of water was kept at about 3 cm. The pot was subsequently managed in a glass greenhouse. Seven Days after sowing, an emulsifiable concentrate prepared according to Formulation Example 15 by using the compound shown in Table 10 below was diluted with water, and a predetermined amount of the water-diluted formulation was added dropwise. The application rate of the active ingredient, by conversion, corresponded to 120 g per 10 are. The test was performed with two replications per one formulation concentration plot, and 14 days after the formulation treatments, the weed suppression rate (%) was determined according to the equation (Math. 2).

Test [2] has as its system Scirpus juncoides. The test is described as above. The following applies: 120 g/10a; treatment seven days after sowing in flooded paddy pot; assessed 14 days after treatment. The protocol: as §1, §2
In test [3] the test system is Echinochloa crus-galli. Described as above. The note with it: 120 g/10a; treatment seven days after sowing in flooded paddy pot; assessed 14 days after treatment. The method, then: as §1, §2
Test [4] has as its system Monochoria vaginalis. The test is described as above. The note with it: 120 g/10a; treatment seven days after sowing in flooded paddy pot; assessed 14 days after treatment. The protocol:
as §1, §2

Test [5] deals with Lindernia pyxidaria. The test can be described thus: Test Example 11: herbicidal effect test by soil treatment in paddy field. The following applies: 120 g/10a active ingredient, 14 days after treatment.
Text: as §2, with “greenhouse. Just” for “greenhouse. Seven Days”, “after that,” for “after sowing,”, “Table 9” for “Table 10”, “are.” for “are. The test was performed with two replications per one formulation concentration plot, and 14 days after the formulation treatments, the weed suppression rate (%) was determined according to the equation (Math. 2).”
as §1

In test [6] the test system is Scirpus juncoides. Described as above. The following applies: 120 g/10a active ingredient, 14 days after treatment.
Text: as §2, with “greenhouse. Just” for “greenhouse. Seven Days”, “after that,” for “after sowing,”, “Table 9” for “Table 10”, “are.” for “are. The test was performed with two replications per one formulation concentration plot, and 14 days after the formulation treatments, the weed suppression rate (%) was determined according to the equation (Math. 2).”
as §1

In test [7] the test system is Echinochloa crus-galli. The test is described as above. The following applies: 120 g/10a active ingredient, 14 days after treatment.
Text: as §2, with “greenhouse. Just” for “greenhouse. Seven Days”, “after that,” for “after sowing,”, “Table 9” for “Table 10”, “are.” for “are. The test was performed with two replications per one formulation concentration plot, and 14 days after the formulation treatments, the weed suppression rate (%) was determined according to the equation (Math. 2).”
as §1

For test [8], the system named is Monochoria vaginalis. The test is described as above. The following applies: 120 g/10a active ingredient, 14 days after treatment.
Text: as §2, with “greenhouse. Just” for “greenhouse. Seven Days”, “after that,” for “after sowing,”, “Table 9” for “Table 10”, “are.” for “are. The test was performed with two replications per one formulation concentration plot, and 14 days after the formulation treatments, the weed suppression rate (%) was determined according to the equation (Math. 2).”
as §1

On to `CC(C)N(C(=O)n1cnn(S(=O)(=O)c2cccs2)c1=O)c1ccc(C#N)cc1Cl` [Compound 11-1044], for which the “Weed suppression rate (%) Lindemia pyxidaria” value in the test with Lindernia pyxidaria [1] is listed as 80%; with Lindernia pyxidaria [5], 90%. Also, the “Weed suppression rate (%) Scirpus juncoides” value in the test with Scirpus juncoides [2] and with Scirpus juncoides [6] was 90% throughout. Further, the “Weed suppression rate (%) Echinochloa crus-galli” value with Echinochloa crus-galli [3] and with Echinochloa crus-galli [7] was 90% in each case. In addition, the results for the “Weed suppression rate (%) Monochoria vaginalis” value in the test with Monochoria vaginalis [4] and in the test with Monochoria vaginalis [8] were 80% and 90%, respectively.
Consider `Cc1ccc(S(=O)(=O)n2ncn(C(=O)N(c3c(F)cccc3F)C(C)C)c2=O)cc1` [Compound 11-639], for which the “Weed suppression rate (%) Lindemia pyxidaria” value worked out at 70% with Lindernia pyxidaria [1] and 100% in the test on Lindernia pyxidaria [5]. Further, the “Weed suppression rate (%) Scirpus juncoides” value in the test with Scirpus juncoides [2] stood at 70%; in the test on Scirpus juncoides [6], 100%. Besides, the “Weed suppression rate (%) Echinochloa crus-galli” value in the test on Echinochloa crus-galli [3] and in the test with Echinochloa crus-galli [7] was 100% in each case. Besides, the “Weed suppression rate (%) Monochoria vaginalis” value in the test with Monochoria vaginalis [4] and in the test on Monochoria vaginalis [8] was 70% throughout.
Turning to `Cc1cc(C)c(S(=O)(=O)n2ncn(C(=O)N(c3cccc(F)c3)C(C)C)c2=O)c(C)c1` [Compound 11-854], the “Weed suppression rate (%) Lindemia pyxidaria” value in the test on Lindernia pyxidaria [1] and in the test with Lindernia pyxidaria [5] was 90% each time. The “Weed suppression rate (%) Scirpus juncoides” value amounted to 80% in the test with Scirpus juncoides [2] and 90% in the test on Scirpus juncoides [6]. The “Weed suppression rate (%) Echinochloa crus-galli” value in the test on Echinochloa crus-galli [3] is listed as 80%; in the test with Echinochloa crus-galli [7] it was 100%. In addition, the “Weed suppression rate (%) Monochoria vaginalis” value with Monochoria vaginalis [4] is on record as 90%; with Monochoria vaginalis [8], 80%.
With `CC(C)N(C(=O)n1cnn(S(=O)(=O)C2CC2)c1=O)c1cccc(F)c1` [Compound 11-161], the “Weed suppression rate (%) Lindemia pyxidaria” value with Lindernia pyxidaria [1] was determined as 80%; with Lindernia pyxidaria [5], 100%. For the same compound, the “Weed suppression rate (%) Scirpus juncoides” value with Scirpus juncoides [2] and in the test with Scirpus juncoides [6] was 90% each time. Moreover, the “Weed suppression rate (%) Echinochloa crus-galli” value is reported as 90% in the test with Echinochloa crus-galli [3] and 100% in the test with Echinochloa crus-galli [7]. Also, the figures for the “Weed suppression rate (%) Monochoria vaginalis” value in the test with Monochoria vaginalis [4] and with Monochoria vaginalis [8] were 80% and 70%, respectively.
In the case of `CC(C)N(C(=O)n1cnn(S(=O)(=O)c2cccs2)c1=O)c1ccc(F)cc1` [Compound 11-1014], the “Weed suppression rate (%) Lindemia pyxidaria” value in the test with Lindernia pyxidaria [1] was found to be 80%; in the test on Lindernia pyxidaria [5] it was 90%. The “Weed suppression rate (%) Scirpus juncoides” value with Scirpus juncoides [2] and in the test on Scirpus juncoides [6] was 90% each time. Besides, the “Weed suppression rate (%) Echinochloa crus-galli” value in the test with Echinochloa crus-galli [3] and in the test with Echinochloa crus-galli [7] was 90% in each case. The “Weed suppression rate (%) Monochoria vaginalis” value with Monochoria vaginalis [4] and with Monochoria vaginalis [8] was 80% each time.
For the compound `Cc1ccc(S(=O)(=O)n2ncn(C(=O)N(c3ccccc3F)C(C)C)c2=O)cc1` [Compound 11-627], the “Weed suppression rate (%) Lindemia pyxidaria” value in the test on Lindernia pyxidaria [1] and in the test on Lindernia pyxidaria [5] was 80% in each case. The “Weed suppression rate (%) Scirpus juncoides” value with Scirpus juncoides [2] and in the test with Scirpus juncoides [6] was 90% throughout. Moreover, the “Weed suppression rate (%) Echinochloa crus-galli” value in the test with Echinochloa crus-galli [3] and with Echinochloa crus-galli [7] was 90% throughout. The “Weed suppression rate (%) Monochoria vaginalis” value in the test on Monochoria vaginalis [4] and with Monochoria vaginalis [8] was 80% each time.
`Cc1cc(C)c(S(=O)(=O)n2ncn(C(=O)N(c3ccc(F)cc3)C(C)C)c2=O)c(C)c1` [Compound 11-855]: the “Weed suppression rate (%) Lindemia pyxidaria” value is listed as 60% in the test on Lindernia pyxidaria [1] and 90% in the test on Lindernia pyxidaria [5]. The “Weed suppression rate (%) Scirpus juncoides” value stood at 80% with Scirpus juncoides [2] and 90% in the test with Scirpus juncoides [6]. Moreover, the figures for the “Weed suppression rate (%) Echinochloa crus-galli” value in the test with Echinochloa crus-galli [3] and in the test with Echinochloa crus-galli [7] were 80% and 100%, respectively. Besides, the “Weed suppression rate (%) Monochoria vaginalis” value with Monochoria vaginalis [4] is on record as 80%; in the test with Monochoria vaginalis [8] it was 90%.
Consider `CC(C)N(C(=O)n1cnn(S(=O)(=O)C(C)C)c1=O)c1cccc(F)c1` [Compound 11-50], for which the “Weed suppression rate (%) Lindemia pyxidaria” value in the test on Lindernia pyxidaria [1] and in the test with Lindernia pyxidaria [5] was 80% in each case. Besides, the “Weed suppression rate (%) Scirpus juncoides” value in the test with Scirpus juncoides [2] and with Scirpus juncoides [6] was 90% each time. For the same compound, the “Weed suppression rate (%) Echinochloa crus-galli” value in the test with Echinochloa crus-galli [3] and in the test with Echinochloa crus-galli [7] was 90% throughout. In addition, the “Weed suppression rate (%) Monochoria vaginalis” value with Monochoria vaginalis [4] and in the test on Monochoria vaginalis [8] was 80% throughout.
Consider `CC(C)N(C(=O)n1cnn(S(=O)(=O)c2ccc(F)cc2)c1=O)c1cccc(F)c1F` [Compound 11-474], for which the “Weed suppression rate (%) Lindemia pyxidaria” value in the test with Lindernia pyxidaria [1] and in the test on Lindernia pyxidaria [5] was 100% throughout. In addition, the “Weed suppression rate (%) Scirpus juncoides” value with Scirpus juncoides [2] and in the test with Scirpus juncoides [6] was 100% each time. Also, the “Weed suppression rate (%) Echinochloa crus-galli” value in the test on Echinochloa crus-galli [3] and in the test with Echinochloa crus-galli [7] was 100% throughout. Moreover, the “Weed suppression rate (%) Monochoria vaginalis” value in the test on Monochoria vaginalis [4] came out at 90%; in the test on Monochoria vaginalis [8], 100%.
For the compound `Cc1nn(S(=O)(=O)C2CC2)c(=O)n1C(=O)N(c1ccc(F)cc1F)C(C)C` [Compound 11-246], the “Weed suppression rate (%) Lindemia pyxidaria” value in the test with Lindernia pyxidaria [1] and in the test on Lindernia pyxidaria [5] was 80% throughout. Further, the “Weed suppression rate (%) Scirpus juncoides” value with Scirpus juncoides [2] and in the test with Scirpus juncoides [6] was 90% in each case. The “Weed suppression rate (%) Echinochloa crus-galli” value in the test on Echinochloa crus-galli [3] and with Echinochloa crus-galli [7] was 90% throughout. Moreover, the “Weed suppression rate (%) Monochoria vaginalis” value in the test on Monochoria vaginalis [4] and with Monochoria vaginalis [8] was 80% each time.
For the compound `CC(C)N(C(=O)n1cnn(S(=O)(=O)C2CCCCC2)c1=O)c1ccc(Br)cc1Cl` [Compound 11-305], the results for the “Weed suppression rate (%) Lindemia pyxidaria” value in the test with Lindernia pyxidaria [1] and with Lindernia pyxidaria [5] were 90% and 100%, respectively. Moreover, the “Weed suppression rate (%) Scirpus juncoides” value in the test with Scirpus juncoides [2] was determined as 100%; in the test with Scirpus juncoides [6] it was 90%. Further, the “Weed suppression rate (%) Echinochloa crus-galli” value with Echinochloa crus-galli [3] and in the test on Echinochloa crus-galli [7] was 100% each time. Also, the “Weed suppression rate (%) Monochoria vaginalis” value in the test with Monochoria vaginalis [4] and in the test on Monochoria vaginalis [8] was 100% in each case.
Take `CC(C)N(C(=O)n1cnn(S(=O)(=O)c2ccc(Cl)cc2)c1=O)c1ccc(F)c(F)c1F` [Compound 11-591]: the entries for the “Weed suppression rate (%) Lindemia pyxidaria” value in the test with Lindernia pyxidaria [1] and in the test with Lindernia pyxidaria [5] were 70% and 90%, respectively. Also, the “Weed suppression rate (%) Scirpus juncoides” value in the test on Scirpus juncoides [2] is 100%; with Scirpus juncoides [6], 60%. Moreover, the “Weed suppression rate (%) Echinochloa crus-galli” value in the test with Echinochloa crus-galli [3] is reported as 60%; with Echinochloa crus-galli [7], 100%. Besides, the “Weed suppression rate (%) Monochoria vaginalis” value in the test with Monochoria vaginalis [4] and in the test on Monochoria vaginalis [8] was 70% throughout.
`CC(C)N(C(=O)n1cnn(S(=O)(=O)c2ccccc2F)c1=O)c1ccccc1F` [Compound 11-392]: the “Weed suppression rate (%) Lindemia pyxidaria” value in the test on Lindernia pyxidaria [1] and in the test with Lindernia pyxidaria [5] was 80% in each case. For the same compound, the “Weed suppression rate (%) Scirpus juncoides” value in the test with Scirpus juncoides [2] and in the test with Scirpus juncoides [6] was 90% each time. Moreover, the “Weed suppression rate (%) Echinochloa crus-galli” value in the test on Echinochloa crus-galli [3] and in the test with Echinochloa crus-galli [7] was 90% each time. Moreover, the “Weed suppression rate (%) Monochoria vaginalis” value in the test on Monochoria vaginalis [4] and in the test on Monochoria vaginalis [8] was 80% throughout.
`CC(C)N(C(=O)n1cnn(S(=O)(=O)c2ccc(C(C)(C)C)cc2)c1=O)c1ccccc1F` [Compound 11-672]: the “Weed suppression rate (%) Lindemia pyxidaria” value with Lindernia pyxidaria [1] and with Lindernia pyxidaria [5] was 80% in each case. The “Weed suppression rate (%) Scirpus juncoides” value in the test on Scirpus juncoides [2] and in the test with Scirpus juncoides [6] was 90% each time. Also, the “Weed suppression rate (%) Echinochloa crus-galli” value in the test with Echinochloa crus-galli [3] and in the test on Echinochloa crus-galli [7] was 90% each time. In addition, the “Weed suppression rate (%) Monochoria vaginalis” value with Monochoria vaginalis [4] and in the test with Monochoria vaginalis [8] was 80% throughout.
